Measured values from ChEMBL document CHEMBL5055670, “Sublyratins A-O, Labdane-Type Diterpenoids from Croton sublyratus” (J Nat Prod, 2021).
Structures can show the parent of a compound that is named as a salt.

What was measured:
A549 = assay: Cytotoxicity against human A549 cells assessed as cell growth inhibition by SRB assay; assay type: functional, cell-based
HL-60 = assay: Cytotoxicity against human HL-60 cells assessed as cell growth inhibition incubated for 72 hrs by CCK8 assay; assay type: functional, cell-based; conditions: HL-60, 72 h

SMILES	IC50 (A549) [nM]	IC50 (HL-60) [nM]
C=C[C@@](C)(O)[C@H]1C[C@H]2C(=CC[C@H]3C(C)(C)CCC[C@]23C)C(=O)O1	> 10000	2800
C=C[C@](C)(O)[C@H]1C[C@H]2C(=CC[C@H]3C(C)(C)CCC[C@]23C)C(=O)O1	> 10000	2600
C=C[C@](C)(O)[C@@H]1C[C@H]2C(=CC[C@H]3C(C)(C)CCC[C@]23C)C(=O)O1	> 10000	2400
C=C[C@@](C)(O)[C@@H]1C[C@H]2C(=CC[C@H]3C(C)(C)CCC[C@]23C)C(=O)O1	> 10000	1500
COc1cccc2c1C(=O)c1c(O)c3c(c(O)c1C2=O)C[C@@](O)(C(=O)CO)C[C@@H]3O[C@H]1C[C@H](N)[C@H](O)[C@H](C)O1 [DOXORUBICIN HYDROCHLORIDE]	850	
